Patent US5118681A (priority 1989, dated 1992)
Converted amounts (≈) assume the structure as drawn.

Columns and labels:
[1] = system: Pseudoperonospora cubensis; experiment: whole plant or invertebrate; assay type: in vivo; conditions: Pseudoperonospora cubensis, in Cucumis sativus, 168 h; read-out: % control CDM
Piricularia oryzae = experiment: whole plant or invertebrate; assay type: in vivo; conditions: Pyricularia oryzae, read-out: % control RB
[2] = system: Pellicularia filamentosa (f. sp. sasiki); experiment: whole plant or invertebrate; assay type: in vivo; conditions: 120 h; read-out: % control RSB
Phytophthora infestans = experiment: whole plant or invertebrate; assay type: in vivo; conditions: Phytophthora infestans, in Solanum lycopersicum, 96 h, read-out: % control TLB
[3] = system: Erysiphe graminis (f. sp. tritici); experiment: whole plant or invertebrate; assay type: in vivo; conditions: Blumeria graminis; read-out: % control WPM
[4] = system: Puccinia recondita (f. sp. tritici Races PKB and PLD); experiment: whole plant or invertebrate; assay type: in vivo; conditions: Puccinia recondita, 240 h; read-out: % control WLR
A.n = experiment: Minimum Inhibitory Concentration Test, alternate (Table 4), A.n; assay type: cell-based, Aspergillus niger; conditions: Aspergillus niger, TSB, 72 hours
Procedure: (§1) A 125 μl aliquot of 10,000 ppm test compound in acetone was added to 4.88 ml of TSB to provide a 250 ppm solution. From this solution, 100 μL was transferred to the first row of two microtiter plate columns. Both replicates and five additional compounds were all serially diluted 1:1 to a final concentration of 0.8 ppm in TSB.
(§2) Inoculation was accomplished by diluting a 24 hr Ps fl culture, four mls per 36 mls of phosphate buffer solution. A Dynatech autoinoculator was used to transfer 1.5 μl of this cell suspension to the microtiter plates. The plates were incubated at 30° C. for 3 days before the lowest concentration at which no growth occurs was recorded in the database. The SOK data and MIC test data on Ps.fl, Ps.ae, E.c, and S.a. bacteria and Candida albicans (C.alb), A.n and A.p fungi are listed in Table 4.

Pseudomonas fluorescens = experiment: Minimum Inhibitory Concentration Test, alternate (Table 4), Ps.fl; assay type: cell-based; conditions: Pseudomonas fluorescens, TSB, 72 hours, 30° C
Procedure: as §1, §2

| Structure (SMILES) | pest or weed control at 200 ppm [1] [%] | pest or weed control at 200 ppm (Piricularia oryzae) [%] | pest or weed control at 200 ppm [2] [%] | pest or weed control at 200 ppm (Phytophthora infestans) [%] | pest or weed control at 200 ppm [3] [%] | pest or weed control at 200 ppm [4] [%] | MIC (A.n) [µg/mL] | MIC (Pseudomonas fluorescens) [µg/mL] | pest or weed control at 5200 ppm [2] [%] | pest or weed control at 100 ppm (Phytophthora infestans) [%] | pest or weed control at 100 ppm [1] [%] | pest or weed control at 100 ppm (Piricularia oryzae) [%] | pest or weed control at 100 ppm [2] [%] | pest or weed control at 100 ppm [3] [%] | pest or weed control at 100 ppm [4] [%] |
| --- | --- | --- | --- | --- | --- | --- | --- | --- | --- | --- | --- | --- | --- | --- | --- |
| CCCCCCCCNC(=O)/C=C\SC(C(=O)NCCCC)C(=O)OCC (stereo not drawn) [Example 13, N-n-octyl-cis-3-[2-(ethyl-N-n-butylmalonamido)thio]acrylamide] | 99 | 50 | 0 | 80 | 75 | 50 | – | – | – | – | – | – | – | – | – |
| CCCCCCCCNC(=O)/C=C\SC(C(=O)NCC(C)C)C(=O)OCC (stereo not drawn) [Example 14, N-n-octyl-cis-3-[2-(ethyl-N-(2-methylpropyl)malonamido)thio]acrylamide] | 95 | 0 | 0 | 50 | 75 | 50 | – | – | – | – | – | – | – | – | – |
| CCCCCCCCNC(=O)/C=C\SC(C(=O)NCCC)C(=O)OCC (stereo not drawn) [Example 15, N-n-octyl-cis-3-[2-(ethyl-N-n-propylmalonamido)thio]acrylamide] | 100 | 40 | – | 89 | 25 | 62 | 63 (≈ 163 µM) | > 500 | 25 | – | – | – | – | – | – |
| CCCCCCCCNC(=O)/C=C\SC(C(=O)NC(C)CC)C(=O)OCC (stereo not drawn) [Example 16, N-n-octyl-cis-3-[2-(ethyl-N-(1-methylpropyl)malonamido)thio]acrylamide] | 42 | 40 | 0 | 47 | 0 | 72 | > 500 | > 500 | – | – | – | – | – | – | – |
| CCCCCCCCNC(=O)/C=C\SC(C(=O)NCCCCCC)C(=O)OCC (stereo not drawn) [Example 17, N-n-octyl-cis-3-[2-(ethyl-N-n-hexylmalonamido)thio]acrylamide] | 100 | 0 | 0 | 90 | 0 | 75 | > 500 | > 500 | – | – | – | – | – | – | – |
| CCCCCCCCNC(=O)/C=C\SC(C(=O)NCCC)C(=O)NCCC [Example 19, N-n-octyl-cis-3-[2-(N,N'-di-n-propylmalonodiamido)thio]acrylamide] | 95 | 0 | 0 | 89 | 25 | 62 | > 500 | > 500 | – | – | – | – | – | – | – |
| CCCCCCCCNC(=O)/C=C\SC(C(=O)NCc1ccccc1)C(=O)OCC (stereo not drawn) [Example 20, N-n-octyl-cis-3-[2-(ethyl-N-benzylmalonamido)thio]acrylamide] | 100 | 90 | 0 | 90 | 0 | 75 | > 500 | > 500 | – | – | – | – | – | – | – |
| CCCCCCCCNC(=O)/C=C\SC(C(=O)Nc1ccccc1Cl)C(=O)OCC (stereo not drawn) [Example 21, N-n-octyl-cis-3-{2-[ethyl-N-(2-chlorophenyl)malonamido]thio}acrylamide] | 97 | 100 | 0 | 97 | 62 | 75 | 8 (≈ 17.6 µM) | > 500 | – | – | – | – | – | – | – |
| CCCCCCCCNC(=O)/C=C\SC(C(=O)NCc1ccc(Cl)cc1)C(=O)OCC (stereo not drawn) [Example 22, N-n-octyl-cis-3-{2-[ethyl-N-(4-chlorobenzyl)malonamido]thio}acrylamide] | 100 | 90 | 0 | – | 37 | 50 | > 500 | > 500 | – | 99 | – | – | – | – | – |
| CCCCCCCCNC(=O)/C=C\SC(C(=O)Nc1cccc(OC)c1)C(=O)OCC (stereo not drawn) [Example 23, N-n-octyl-cis-3-{2-[ethyl-N-(3-methoxyphenyl)malonamido]thio}acrylamide] | 92 | 50 | 0 | 100 | 47 | 50 | > 500 | > 500 | – | – | – | – | – | – | – |
| CCCCCCCCCCCCNC(=O)C(S/C=C\C(=O)NCCCCCCCC)C(=O)OCC (stereo not drawn) [Example 24, N-n-octyl-cis-3-[2-(ethyl-N-n-dodecylmalonamido)thio]acrylamide] | 100 | 0 | 0 | 50 | 0 | 50 | 250 (≈ 488 µM) | > 500 | – | – | – | – | – | – | – |
| CCCCCCCCNC(=O)/C=C\SC(C(=O)Nc1nccs1)C(=O)OCC (stereo not drawn) [Example 25, N-n-octyl-cis-3-{2-[ethyl-N-(2-thiazoyl)malonamido]thio}acrylamide] | 100 | 0 | 50 | 80 | 0 | 75 | > 500 | > 500 | – | – | – | – | – | – | – |
| CCCCCCCCNC(=O)/C=C\SC(C(=O)NCCCCCC#N)C(=O)OCC (stereo not drawn) [Example 27, N-n-octyl-cis-3-{2-[ethyl-N-(5-cyanopentyl)malonamido]thio}acrylamide] | 100 | 98 | 0 | 100 | 0 | – | > 500 | > 500 | – | – | – | – | – | – | – |
| CCCCCCCCNC(=O)/C=C\SC(C(=O)Nc1ccc(Cl)cc1C#N)C(=O)OCC (stereo not drawn) [Example 43, N-n-octyl-cis-3-{2-[ethyl-N-(2-cyano-4-chlorophenyl)malonamido]thio}acrylamide] | – | – | – | – | – | – | – | – | – | 80 | 100 | 100 | 0 | 50 | 75 |
| CCCCCCCCNC(=O)/C=C\SC(C(=O)Nc1ccccn1)C(=O)OCC (stereo not drawn) [Example 44, N-n-octyl-cis-3-{2-[ethyl-N-(2-pyridyl)malonamido]thio}acrylamide] | – | – | – | – | – | – | 250 (≈ 593 µM) | > 500 | – | 0 | – | 50 | 0 | 0 | 75 |
| CCCCCCCCNC(=O)/C=C\SC(C(=O)Nc1cc(Cl)ccc1OC)C(=O)OCC (stereo not drawn) [Example 46, N-n-octyl-cis-3-{2-[ethyl-N-(2-methoxy-5-chlorophenyl)malonamido]thio}acrylamide] | – | – | – | – | – | – | 250 (≈ 515 µM) | > 500 | – | 0 | – | 80 | 50 | 0 | 50 |
